Results taken from patent publication US10047086B2, “Imidazopyridines and imidazopyrazines as LSD1 inhibitors” (Incyte Corporation, priority 2014, dated 2018).

Molecular target: LSD-1 enzyme (Homo sapiens (Human), UniProt O60341)
Test: LANCE LSD1/KDM1A demethylase assay (LSD1 histone demethylase biochemical assay)
Details: 1 nM LSD-1 enzyme, 1 hour preincubation at 25° C., 0.4 μM Biotin-labeled Histone H3 peptide substrate
Method: LSD1 Histone Demethylase Biochemical Assay
LANCE LSD1/KDM1A demethylase assay-10 μL of 1 nM LSD-1 enzyme (ENZO BML-SE544-0050) in the assay buffer (50 mM Tris, pH 7.5, 0.01% Tween-20, 25 mM NaCl, 5 mM DTT) were preincubated for 1 hour at 25° C. with 0.8 μL compound/DMSO dotted in black 384 well polystyrene plates. […] Reactions were stopped by addition of 10 μL 1× LANCE Detection Buffer (PerkinElmer CR97-100) supplemented with 1.5 nM Eu-anti-unmodified H3K4 Antibody (PerkinElmer TRF0404), and 225 nM LANCE Ultra Streptavidin (PerkinElmer TRF102) along with 0.9 mM Tranylcypromine-HCl (Millipore 616431). After stopping the reactions plates were incubated for 30 minutes and read on a PHERAstar FS plate reader (BMG Labtech).

Row | Compound | IC50
1 | Cn1ncc2cc(-c3c(-c4ccc(C#N)cc4)nc(OC[C@@H]4CCCN(CCC#N)C4)c4cncn34)cnc21 [Example 38, 4-[8-{[(3R)-1-(2-cyanoethyl)piperidin-3-yl]methoxy}-5-(1-methyl-1H-1-pyrazolo[3,4-b]pyridin-5-yl)imidazo[1,5-a]pyrazin-6-yl]benzonitrile] | ≤ 50 nM
2 | COCCN1CCC[C@@H](COc2nc(-c3ccc(C#N)cc3)c(-c3cnc4c(cnn4C)c3)n3cncc23)C1 [Example 40, 4-[8-{[(3R)-1-(2-methoxyethyl)piperidin-3-yl]methoxy}-5-(1-methyl-1H-pyrazolo[3,4-b]pyridin-5-yl)imidazo[1,5-a]pyrazin-6-yl]benzonitrile] | ≤ 50 nM
3 | Cc1ccc(-c2c(-c3ccc(C#N)cc3)nc(OC[C@@H]3CCCN(C)C3)c3cncn23)cc1CO [Example 42, 4-(5-[3-(hydroxymethyl)-4-methylphenyl]-8-{[(3R)-1-methylpiperidin-3-yl]methoxy}imidazo[1,5-a]pyrazin-6-yl)benzonitrile] | ≤ 50 nM
4 | COc1ncc(-c2c(-c3ccc(C#N)cc3)nc(OC[C@@H]3CCCN(C)C3)c3cncn23)cc1F [Example 43, 4-(5-(5-fluoro-6-methoxypyridin-3-yl)-8-{[(3R)-1-methylpiperidin-3-yl]methoxy}imidazo[1,5-a]pyrazin-6-yl)benzonitrile] | ≤ 50 nM
5 | Cc1cc(-c2c(-c3ccc(C#N)cc3)nc(OC[C@@H]3CCCN(C)C3)c3cncn23)cc(F)c1CO [Example 44, 4-(5-[3-fluoro-4-(hydroxymethyl)-5-methylphenyl]-8-{[(3R)-1-methylpiperidin-3-yl]methoxy}imidazo[1,5-a]pyrazin-6-yl)benzonitrile] | ≤ 50 nM
6 | Cc1cc(-c2c(-c3ccc(C#N)cc3)nc(OC[C@@H]3CCCN(C)C3)c3cncn23)ccc1CO [Example 45, 4-(5-[4-(hydroxymethyl)-3-methylphenyl]-8-{[(3R)-1-methylpiperidin-3-yl]methoxy}imidazo[1,5-a]pyrazin-6-yl)benzonitrile] | ≤ 50 nM
7 | CN1CCC[C@@H](COc2nc(-c3ccc(C#N)cc3)c(-c3cc(F)c(CO)c(F)c3)n3cncc23)C1 [Example 47, 4-(5-[3,5-difluoro-4-(hydroxymethyl)phenyl]-8-{[(3R)-1-methylpiperidin-3-yl]methoxy}imidazo[1,5-a]pyrazin-6-yl)benzonitrile] | ≤ 50 nM
8 | COC(=O)N(C)Cc1ccc(-c2c(-c3ccc(C#N)cc3)nc(OC[C@@H]3CCCN(C)C3)c3cncn23)cc1F [Example 48, methyl [4-(6-(4-cyanophenyl)-8-{[(3R)-1-methylpiperidin-3-yl]methoxy}imidazo[1,5-a]pyrazin-5-yl)-2-fluorobenzyl]methylcarbamate] | ≤ 50 nM
9 | CN(C)C1CCN(c2nc(-c3ccc(C#N)cc3)c(-c3cnc4c(cnn4C)c3)n3cncc23)CC1 [Example 50, 4-[8-[4-(dimethylamino)piperidin-1-yl]-5-(1-methyl-1H-pyrazolo[3,4-b]pyridin-5-yl)imidazo[1,5-a]pyrazin-6-yl]benzonitrile] | ≤ 50 nM
10 | CN(C)C1CCN(c2nc(-c3ccc(C#N)cc3)c(-c3ccc4c(c3)oc(=O)n4C)n3cncc23)CC1 [Example 51, 4-[8-[4-(dimethylamino)piperidin-1-yl]-5-(3-methyl-2-oxo-2,3-dihydro-1,3-benzoxazol-6-yl)imidazo[1,5-a]pyrazin-6-yl]benzonitrile] | ≤ 50 nM
11 | COc1ccc(-c2c(-c3ccc(C#N)cc3)nc(N3CCC(N(C)C)CC3)c3cncn23)cn1 [Example 53, 4-[8-[4-(dimethylamino)piperidin-1-yl]-5-(6-methoxypyridin-3-yl)imidazo[1,5-a]pyrazin-6-yl]benzonitrile] | ≤ 50 nM
12 | CN(C)C1CCN(c2nc(-c3ccc(C#N)cc3)c(-c3ccc(N4CCCC4=O)nc3)n3cncc23)CC1 [Example 54, 4-{8-[4-(dimethylamino)piperidin-1-yl]-5-[6-(2-oxopyrrolidin-1-yl)pyridin-3-yl]imidazo[1,5-a]pyrazin-6-yl}benzonitrile] | ≤ 50 nM
13 | CN1CCC[C@@H](COc2cc(-c3ccc(C#N)cc3)c(-c3ccc4nccnc4c3)n3cncc23)C1 [Example 56, (R)-4-(8-((1-methylpiperidin-3-yl)methoxy)-5-(quinoxalin-6-yl)imidazo[1,5-a]pyridin-6-yl)benzonitrile] | ≤ 50 nM
14 | CN1CCC[C@@H](COc2cc(-c3ccc(C#N)cc3)c(-c3cnc4c(c3)oc(=O)n4C)n3cncc23)C1 [Example 57, (R)-4-(5-(3-methyl-2-oxo-2,3-dihydrooxazolo[4,5-b]pyridin-6-yl)-8-((1-methylpiperidin-3-yl)methoxy)imidazo[1,5-a]pyridin-6-yl)benzonitrile] | ≤ 50 nM
15 | CN1CCC[C@@H](COc2cc(-c3ccc(C#N)cc3)c(-c3cnc4c(c3)ncn4C)n3cncc23)C1 [Example 58, (R)-4-(5-(3-methyl-3H-imidazo[4,5-b]pyridin-6-yl)-8-((1-methylpiperidin-3-yl)methoxy)imidazo[1,5-a]pyridin-6-yl)benzonitrile] | ≤ 50 nM
16 | CN1CCC[C@@H](COc2cc(-c3ccc(C#N)cc3)c(-c3cnc4c(c3)OCCO4)n3cncc23)C1 [Example 62, (R)-4-(5-(2,3-dihydro-[1,4]dioxino[2,3-b]pyridin-7-yl)-8-((1-methylpiperidin-3-yl)methoxy)imidazo[1,5-a]pyridin-6-yl)benzonitrile] | ≤ 50 nM
17 | CN1CCC[C@@H](COc2cc(-c3ccc(C#N)cc3)c(-c3ccc4c(c3)oc(=O)n4C)n3cncc23)C1 [Example 63, (R)-4-(5-(3-methyl-2-oxo-2,3-dihydrobenzo[d]oxazol-6-yl)-8-((1-methylpiperidin-3-yl)methoxy)imidazo[1,5-a]pyridin-6-yl)benzonitrile] | ≤ 50 nM
18 | CN1CCC[C@@H](COc2cc(-c3ccc(C#N)cc3)c(-c3ccc4c(c3)CC(=O)N4C)n3cncc23)C1 [Example 64, (R)-4-(5-(1-methyl-2-oxoindolin-5-yl)-8-((1-methylpiperidin-3-yl)methoxy)imidazo[1,5-a]pyridin-6-yl)benzonitrile] | ≤ 50 nM
19 | CN1CCC[C@@H](COc2cc(-c3ccc(C#N)cc3)c(-c3ccc4c(c3)OCC(=O)N4C)n3cncc23)C1 [Example 65, (R)-4-(5-(4-methyl-3-oxo-3,4-dihydro-2H-benzo[b][1,4]oxazin-7-yl)-8-((1-methylpiperidin-3-yl)methoxy)imidazo[1,5-a]pyridin-6-yl)benzonitrile] | ≤ 50 nM
20 | CCN1CCC[C@@H](COc2cc(-c3ccc(C#N)cc3)c(-c3cnc4c(c3)OCCO4)n3cncc23)C1 [Example 67, (R)-4-(5-(2,3-dihydro-[1,4]dioxino[2,3-b]pyridin-7-yl)-8-((1-ethylpiperidin-3-yl)methoxy)imidazo[1,5-a]pyridin-6-yl)benzonitrile] | ≤ 50 nM
21 | COc1ncc(-c2c(-c3ccc(C#N)cc3)cc(OC[C@@H]3CCCN(C)C3)c3cncn23)cc1F [Example 70, (R)-4-(5-(5-fluoro-6-methoxypyridin-3-yl)-8-((1-methylpiperidin-3-yl)methoxy)imidazo[1,5-a]pyridin-6-yl)benzonitrile] | ≤ 50 nM
22 | CN1CCC[C@@H](COc2cc(-c3ccc(C#N)cc3)c(-c3ccc(N4CCCC4=O)nc3)n3cncc23)C1 [Example 71, (R)-4-(8-((1-methylpiperidin-3-yl)methoxy)-5-(6-(2-oxopyrrolidin-1-yl)pyridin-3-yl)imidazo[1,5-a]pyridin-6-yl)benzonitrile] | ≤ 50 nM
